According to patent publication US10428080B2, “TBK/IKK inhibitor compounds and uses thereof” (Merck Patent GmbH, priority 2015, dated 2019):
Counter-ions that a name gives are not always drawn.

Legend:
TBK1 = target: T1, TBK1 (Homo sapiens, UniProt Q9UHD2); experiment: TBK Biochemical Assay; conditions: read-out: TBK1 IC50
T1 sequence (Q9UHD2 1-729): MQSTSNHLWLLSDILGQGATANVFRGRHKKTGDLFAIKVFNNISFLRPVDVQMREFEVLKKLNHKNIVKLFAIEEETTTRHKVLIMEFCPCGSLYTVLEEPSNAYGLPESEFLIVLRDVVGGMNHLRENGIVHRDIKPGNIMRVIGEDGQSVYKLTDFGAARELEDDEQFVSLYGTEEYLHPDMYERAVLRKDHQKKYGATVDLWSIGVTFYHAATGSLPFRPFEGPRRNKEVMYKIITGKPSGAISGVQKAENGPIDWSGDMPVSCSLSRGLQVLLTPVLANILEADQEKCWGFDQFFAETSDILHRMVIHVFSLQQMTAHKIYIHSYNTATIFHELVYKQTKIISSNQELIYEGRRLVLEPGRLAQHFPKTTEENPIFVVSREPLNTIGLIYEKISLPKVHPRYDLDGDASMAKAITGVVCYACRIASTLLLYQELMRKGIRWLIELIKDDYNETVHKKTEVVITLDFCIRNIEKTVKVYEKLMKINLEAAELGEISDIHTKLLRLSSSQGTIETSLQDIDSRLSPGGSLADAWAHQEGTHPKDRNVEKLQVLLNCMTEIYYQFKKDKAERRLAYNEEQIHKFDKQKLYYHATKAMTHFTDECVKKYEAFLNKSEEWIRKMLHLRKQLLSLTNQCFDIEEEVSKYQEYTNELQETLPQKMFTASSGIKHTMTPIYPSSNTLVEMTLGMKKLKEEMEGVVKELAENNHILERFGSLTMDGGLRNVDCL
Outline: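 Caliper LabChip mobility-shift readout of substrate and product after 90 min of TBK1 reaction at 25° C and stop-buffer addition. Compounds tested in 1:4 serial dilution over 10 points from 30 uM final at 1% DMSO; staurosporine 10 uM final defines full inhibition.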

IKKε = target: T2, IKKε (Homo sapiens, UniProt Q14164); experiment: IKKe Biochemical Assay; conditions: read-out: IKKε IC50
T2 sequence (Q14164 1-716): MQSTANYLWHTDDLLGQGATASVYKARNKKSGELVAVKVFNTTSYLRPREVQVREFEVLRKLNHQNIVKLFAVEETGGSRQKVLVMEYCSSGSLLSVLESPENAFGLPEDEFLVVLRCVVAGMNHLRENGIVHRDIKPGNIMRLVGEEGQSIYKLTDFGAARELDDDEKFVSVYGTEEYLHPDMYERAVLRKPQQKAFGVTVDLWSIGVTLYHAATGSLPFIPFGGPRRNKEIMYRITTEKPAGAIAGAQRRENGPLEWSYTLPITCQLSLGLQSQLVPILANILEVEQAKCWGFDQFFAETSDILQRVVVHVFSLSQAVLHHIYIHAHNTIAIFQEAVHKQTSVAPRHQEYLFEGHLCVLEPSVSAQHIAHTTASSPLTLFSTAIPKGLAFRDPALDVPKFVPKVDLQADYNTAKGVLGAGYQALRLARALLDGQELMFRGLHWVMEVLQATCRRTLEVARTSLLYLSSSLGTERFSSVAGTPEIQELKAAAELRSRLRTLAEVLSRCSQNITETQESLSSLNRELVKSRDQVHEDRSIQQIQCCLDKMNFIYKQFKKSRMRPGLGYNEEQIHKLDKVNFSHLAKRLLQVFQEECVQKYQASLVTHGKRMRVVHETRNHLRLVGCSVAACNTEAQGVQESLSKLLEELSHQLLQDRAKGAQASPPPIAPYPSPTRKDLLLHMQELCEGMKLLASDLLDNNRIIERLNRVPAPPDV
Outline: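 Activity was measured as mobility-shift separation of phosphorylated from unphosphorylated substrate on a LabChip EZ Reader. Compound was titrated from 30 uM final in 10 points, 1:4 steps, with 1% DMSO, and enzyme plus substrate reacted 90 min at 25° C before stop buffer. Control wells held 10 uM staurosporine.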

Row | Structure (SMILES) | IC50 (TBK1) | IC50 (IKKε)
1 | COc1cc(C(=O)N(C)C)cnc1-c1cc2ncc(C)c(-c3ccc(OC4CCOCC4)c(C#N)n3)c2o1 [Compound 321, 6-[7-[6-cyano-5-(oxan-4-yloxy)pyridin-2-yl]-6-methylfuro[3,2-b]pyridin-2-yl]-5-methoxy-N,N-dimethylpyridine-3-carboxamide hydrochloride] | 100 to 1000 nM | 100 to 1000 nM
2 | COc1cc(C(=O)N2CC3CCCC3C2)ccc1-c1cc2nccc(-c3ccc(OC4CCOCC4)c(C#N)c3)c2o1 (stereo not drawn) [Compound 99, 5-{2-[4-(Hexahydro-cyclopenta[c]pyrrole-2-carbonyl)-2-methoxy-phenyl]-furo[3,2-b]pyridin-7-yl}-2-(tetrahydro-pyran-4-yloxy)-benzonitrile] | < 100 nM | < 100 nM
3 | COc1cc(C(=O)N2CCCCC2)ncc1-c1cc2nccc(-c3cc(C#N)c(OC4CCOCC4)cn3)c2o1 [Compound 383, 2-(2-[4-methoxy-6-[(piperidin-1-yl)carbonyl]pyridin-3-yl]furo[3,2-b]pyridin-7-yl)-5-(oxan-4-yloxy)pyridine-4-carbonitrile] | 100 to 1000 nM | 100 to 1000 nM
4 | COc1cc(C(=O)N(C)CCCO)ccc1-c1cc2nccc(-c3ccc(NC4CCOCC4)c(C#N)c3)c2o1 [Compound 261, 4-(7-(3-cyano-4-(tetrahydro-2H-pyran-4-ylamino)phenyl)furo[3,2-b]pyridin-2-yl)-N-(3-hydroxypropyl)-3-methoxy-N-methylbenzamide] | < 100 nM | < 100 nM
5 | COc1cc(C(=O)N(C)C)ccc1-c1cc2nccc(-c3ccc(O[C@H]4CCCNC4)c(C#N)c3)c2o1 [Compound 142, 4-{7-[3-Cyano-4-((S)-piperidin-3-yloxy)-phenyl]-furo[3,2-b]pyridin-2-yl}-3-methoxy-N,N-dimethyl-benzamide] | < 100 nM | < 100 nM
6 | COc1cc(C(=O)N2CC3CCC2CO3)ccc1-c1cc2nccc(-c3ccc(OC4CCOCC4)c(C#N)c3)c2o1 (stereo not drawn) [Compound 4, 5-{2-[2-Methoxy-4-(2-oxa-5-aza-bicyclo[2.2.2]octane-5-carbonyl)-phenyl]-furo[3,2-b]pyridin-7-yl}-2-(tetrahydro-pyran-4-yloxy)-benzonitrile] | < 100 nM | < 100 nM
7 | CN(C)C(=O)c1ccc(-c2cc3nccc(-c4ccc(Oc5cccc(F)c5)c(C#N)c4)c3o2)cc1 [Compound 176, 4-{7-[3-Cyano-4-(3-fluoro-phenoxy)-phenyl]-furo[3,2-b]pyridin-2-yl}-N,N-dimethyl-benzamide] | 100 to 1000 nM | 100 to 1000 nM
8 | COc1cc(C(=O)N(C)CCO)cnc1-c1cc2ncc(C(C)C)c(-c3ccc(OC4CCOCC4)c(C#N)c3)c2o1 [Compound 333, 6-[7-[3-cyano-4-(oxan-4-yloxy)phenyl]-6-(propan-2-yl)furo[3,2-b]pyridin-2-yl]-N-(2-hydroxyethyl)-5-methoxy-N-methylpyridine-3-carboxamide] | > 5000 nM | > 5000 nM
9 | COc1cc(C(=O)N(C)C)ccc1-c1cc2nccc(-c3ccc(OC4[C@H](C)COC[C@H]4C)c(C#N)c3)c2o1 (single isomer, unassigned) [Compound 231, 4-(7-(3-cyano-4-(3,5-dimethyl-tetrahydro-2H-pyran-4-yloxy)phenyl)furo[3,2-b]pyridin-2-yl)-3-methoxy-N,N-dimethylbenzamide] | < 100 nM | < 100 nM
10 | COc1cc(C(=O)N(C)C)ccc1-c1cc2nccc(-c3ccc(N(C)C4CCOCC4)c(C#N)c3)c2o1 [Compound 227, 4-(7-(3-cyano-4-(methyl(tetrahydro-2H-pyran-4-yl)amino)phenyl)furo[3,2-b]pyridin-2-yl)-3-methoxy-N,N-dimethylbenzamide] | < 100 nM | < 100 nM
11 | COc1cc(C(=O)N(C)C)cnc1-c1cc2ncc(OC)c(-c3ccc(NC4CCOCC4)c(C#N)c3)c2o1 [Compound 340, 6-(7-[3-cyano-4-[(oxan-4-yl)amino]phenyl]-6-methoxyfuro[3,2-b]pyridin-2-yl)-5-methoxy-N,N-dimethylpyridine-3-carboxamide] | 100 to 1000 nM | 1000 to 5000 nM
12 | COc1cc(C(=O)N(C)C)ccc1-c1cc2nccc(-c3ccc(C(C)(C)N4CCOCC4)c(C#N)c3)c2o1 [Compound 235, 4-(7-(3-cyano-4-(2-morpholinopropan-2-yl)phenyl)furo[3,2-b]pyridin-2-yl)-3-methoxy-N,N-dimethylbenzamide hydrochloride] | 100 to 1000 nM | 100 to 1000 nM
13 | COc1cc(C(=O)NC2CCN(C(=O)OC(C)(C)C)C2)ccc1-c1cc2nccc(-c3ccc(NC4CCOCC4)c(C#N)c3)c2o1 (stereo not drawn) [Compound 147, 3-(4-{7-[3-Cyano-4-(tetrahydro-pyran-4-ylamino)-phenyl]-furo[3,2-b]pyridin-2-yl}-3-methoxy-benzoylamino)-pyrrolidine-1-carboxylic acid tert-butyl ester] | < 100 nM | < 100 nM
14 | COc1cc(C(=O)N(C)C)ccc1-c1cc2nccc(-c3ccc(OC4CCN(C(C)C)C4)c(C#N)c3)c2o1 (stereo not drawn) [Compound 157, 4-{7-[3-Cyano-4-(1-isopropyl-pyrrolidin-3-yloxy)-phenyl]-furo[3,2-b]pyridin-2-yl}-3-methoxy-N,N-dimethyl-benzamide] | 100 to 1000 nM | < 100 nM
15 | COc1cc(C(=O)N(C)C)ccc1-c1cc2nccc(-c3ccc(OC4CCN(C)CC4(F)F)c(C#N)c3)c2o1 (stereo not drawn) [Compound 97, 4-{7-[3-Cyano-4-(3,3-difluoro-1-methyl-piperidin-4-yloxy)-phenyl]-furo[3,2-b]pyridin-2-yl}-3-methoxy-N,N-dimethyl-benzamide] | < 100 nM | < 100 nM
16 | COc1cc(C(=O)N2CC3CN(C)CC3C2)ncc1-c1cc2nccc(-c3ccc(N4CC[C@@H](F)C4)c(C#N)c3)c2o1 (stereo partly drawn) [Compound 453, 2-[(3R)-3-fluoropyrrolidin-1-yl]-5-[2-[4-methoxy-6-([5-methyl-octahydropyrrolo[3,4-c]pyrrol-2-yl]carbonyl)pyridin-3-yl]furo[3,2-b]pyridin-7-yl]benzonitrile] | < 100 nM | < 100 nM
17 | COc1cc(C(=O)N(C)C)ccc1-c1cc2nccc(-c3ccc(CN4CCOCC4)c(C#N)c3)c2o1 [Compound 234, 4-(7-(3-cyano-4-(morpholinomethyl)phenyl)furo[3,2-b]pyridin-2-yl)-3-methoxy-N,N-dimethylbenzamide] | < 100 nM | < 100 nM
18 | N#Cc1cc(-c2ccnc3cc(-c4ccc(C(=O)N[C@@H]5CCNC[C@@H]5F)cc4F)oc23)ccc1NC1CCOCC1 (stereo in doubt) [Compound 252, 4-(7-(3-cyano-4-(tetrahydro-2H-pyran-4-ylamino)phenyl)furo[3,2-b]pyridin-2-yl)-3-fluoro-N-(3-fluoropiperidin-4-yl)benzamide hydrochloride] | 100 to 1000 nM | 100 to 1000 nM
19 | CN(C)C(=O)c1cnc(-c2cc3nccc(-c4ccc(NC5CCOCC5)c(C#N)c4)c3o2)c(F)c1 [Compound 249, 6-(7-(3-cyano-4-(tetrahydro-2H-pyran-4-ylamino)phenyl)furo[3,2-b]pyridin-2-yl)-5-fluoro-N,N-dimethylnicotinamide] | 100 to 1000 nM | 100 to 1000 nM
20 | CN(C)C(=O)c1ccc(-c2cc3nccc(-c4cc(F)c(NC5CCOCC5)c(C#N)c4)c3o2)nc1 [Compound 246] | 100 to 1000 nM | 100 to 1000 nM
21 | COc1cc(C(=O)NC2CC3CCC2CC3)ccc1-c1cc2nccc(-c3ccc(OC4CCOCC4)c(C#N)c3)c2o1 (stereo not drawn) [Compound 495] | 100 to 1000 nM | < 100 nM
